The values that follow come from PubChem BioAssay (NCI).

Some test systems named below: CAKI-1 renal; OVCAR-4 ovarian; SW-620 colon; HOP-92 NSCLC; SF-295 CNS; OVCAR-8 ovarian; MCF7 breast; HL-60(TB) leukemia; NCI-H460 lung; UACC-257 melanoma; A498 renal.
Common to all, as to assay: inhibition of tumour cell growth, NCI panel, 48 h

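Protocol summary: plate cells (96-well), add compound at 5 concentrations, incubate 48 h, interpolate endpoints linearly. GI50: concentration for 50% inhibition of growth. Definition used: TGI = concentration required for complete inhibition of growth.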

Consider `COc1cccc(NC(=O)CC(=O)NNCC(=O)Nc2nnc(-c3ccc(N(CCC#N)S(=O)(=O)c4ccccc4)cc3)s2)c1`, for which the TGI in the test on CAKI-1 renal, with OVCAR-4 ovarian, in the test with SW-620 colon, in the test on HOP-92 NSCLC, in the test on SF-295 CNS and in the test with OVCAR-8 ovarian was over 100 µM each time.
For `COc1ccc2c(c1)CC1Cc3ccccc3CCN1C2` (configuration not stated), the TGI with CAKI-1 renal is 59.1 µM; with OVCAR-4 ovarian, over 100 µM; with MCF7 breast, over 100 µM; with SW-620 colon, over 100 µM; with HOP-92 NSCLC, over 100 µM; with SF-295 CNS, over 100 µM. For the same molecule, the TGI with HL-60(TB) leukemia, in the test with NCI-H460 lung, in the test on OVCAR-8 ovarian and in the test with UACC-257 melanoma was over 100 µM throughout.
On to `CCC(=O)NC(OCC1(CC)COC1)(C(F)(F)F)C(F)(F)F`, for which the TGI with MCF7 breast, in the test with HL-60(TB) leukemia, with NCI-H460 lung, with A498 renal and in the test on UACC-257 melanoma was over 100 µM throughout.
Take `COc1cc(OC)cc(-c2n/c(=C\c3c(O)[nH]c4ccc(Cl)cc34)cc3c2=Nc2ccccc2-3)c1`: the GI50 is 12.9 µM in the test on CAKI-1 renal; 1.76 µM in the test with OVCAR-4 ovarian; 1.82 µM in the test on MCF7 breast; 2.66 µM with SW-620 colon; 2.32 µM with SF-295 CNS; 3.26 µM in the test on NCI-H460 lung. In addition, the GI50 is 3.51 µM in the test on OVCAR-8 ovarian, 30.9 µM in the test on A498 renal and over 100 µM with UACC-257 melanoma. In addition, the TGI came to 30.5 µM in the test with CAKI-1 renal; 3.77 µM in the test with OVCAR-4 ovarian; 4.66 µM in the test with MCF7 breast; 8 µM in the test with SW-620 colon; 6.11 µM in the test with SF-295 CNS; 10.5 µM in the test with NCI-H460 lung. Moreover, the values for the TGI with OVCAR-8 ovarian, with A498 renal and in the test with UACC-257 melanoma were 15.5 µM, over 100 µM and over 100 µM, respectively.
With `CCNc1ncnc2c1nnn2CC`, the TGI in the test with CAKI-1 renal, in the test with OVCAR-4 ovarian, in the test with MCF7 breast, in the test on SW-620 colon, in the test on HOP-92 NSCLC and with SF-295 CNS was over 100 µM in each case. Also, the TGI in the test on HL-60(TB) leukemia, with OVCAR-8 ovarian, with A498 renal and with UACC-257 melanoma was over 100 µM throughout.
Regarding `COC(=O)C1=C(C)N(NC(=O)c2ccccc2)C2(O)CCCC(=O)C12C` (configuration not stated), the TGI in the test with CAKI-1 renal, with OVCAR-4 ovarian, with SW-620 colon, in the test on HOP-92 NSCLC, in the test on SF-295 CNS and in the test on OVCAR-8 ovarian was over 100 µM each time. In addition, the TGI with A498 renal and in the test with UACC-257 melanoma was over 100 µM throughout.
Consider `CC(C)(C)OC(=O)NCC(=O)NC1C/C(=N\O)c2sccc21` (configuration not stated), for which the TGI in the test with CAKI-1 renal, in the test with OVCAR-4 ovarian, with MCF7 breast, in the test on SW-620 colon, in the test on SF-295 CNS and in the test on HL-60(TB) leukemia was over 100 µM each time. Also, the TGI in the test on NCI-H460 lung, in the test on OVCAR-8 ovarian, with A498 renal and in the test with UACC-257 melanoma was over 100 µM throughout.
Take `CN(/N=N/c1nc[nH]c1C(N)=O)C1CCCCC1`: the TGI in the test with OVCAR-4 ovarian, in the test on SW-620 colon, in the test on HOP-92 NSCLC, in the test on SF-295 CNS, with HL-60(TB) leukemia and in the test with NCI-H460 lung was over 100 µM throughout. Also, the TGI in the test on OVCAR-8 ovarian, with A498 renal and with UACC-257 melanoma was over 100 µM in each case.
`COc1ccc2c(c1OC)C(=O)O[C@@H]2[C@H]1c2cc3c(cc2CCN1C)OCO3`: the TGI in the test on CAKI-1 renal, with OVCAR-4 ovarian, with MCF7 breast, in the test on SW-620 colon, in the test with HOP-92 NSCLC and in the test on SF-295 CNS was over 100 µM each time. The TGI in the test on HL-60(TB) leukemia, with NCI-H460 lung, with OVCAR-8 ovarian, in the test on A498 renal and in the test with UACC-257 melanoma was over 100 µM throughout.
